Experimental data published in ChEMBL document CHEMBL3813657, “Bacterial Peptide deformylase inhibition of cyano substituted biaryl analogs: Synthesis, in vitro biological evaluation, molecular docking study and in silico ADME prediction” (Bioorg Med Chem, 2016).
Values after ≈ are worked out from the molar mass of the structure shown.

Legend:
[1] = biological target: T1, Peptide deformylase (Escherichia coli, UniProt Q9JN24); assay: Inhibition of NiCl2 stabilized Escherichia coli NCIM-2931 peptide deformylase using N-formyl-Met-Ala as substrate incubated for 30 mins by spectrophotometric method
T1 sequence (Q9JN24 whole entry): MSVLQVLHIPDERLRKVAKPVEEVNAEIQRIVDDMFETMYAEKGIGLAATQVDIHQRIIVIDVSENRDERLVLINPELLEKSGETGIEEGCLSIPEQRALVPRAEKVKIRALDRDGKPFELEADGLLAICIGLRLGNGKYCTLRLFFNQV

[2] = tested on: Escherichia coli; assay: Antibacterial activity against Escherichia coli NCIM-2256 after 24 hrs by two fold serial dilution method; assay type: functional; conditions: NCIM-2256, 24 h
[3] = tested on: Bacillus subtilis; assay: Antibacterial activity against Bacillus subtilis NCIM-2063 after 24 hrs by two fold serial dilution method; assay type: functional; conditions: NCIM-2063, 24 h
[4] = biological target: T1, Peptide deformylase; assay: Inhibition of Escherichia coli peptide deformylase

Row | IC50 [4] | Compound | IC50 [1] | MIC [2] | MIC [3]
1 |  | N#Cc1ccccc1-c1ccc(CNc2cnccn2)cc1 | 19.2 µM | 16.9 µg/mL (≈ 59.1 µM) | 7.66 µg/mL (≈ 26.8 µM)
2 | 3.9 µM | CCCc1nc2ccc(Cl)cc2n1Cc1ccc(-c2ccccc2-c2nnn[nH]2)cc1 |  |  | 
3 |  | N#Cc1ccccc1-c1ccc(CNc2ccccc2)cc1 | 13.2 µM | 15.8 µg/mL (≈ 55.7 µM) | 11 µg/mL (≈ 38.7 µM)
4 |  | N#Cc1ccccc1-c1ccc(CNc2ccccc2O)cc1 | 33 µM | 39.6 µg/mL (≈ 132 µM) | 29.3 µg/mL (≈ 97.6 µM)
5 |  | N#Cc1ccccc1-c1ccc(CNc2ccc(Cl)cc2[N+](=O)[O-])cc1 | 28.3 µM | 45.6 µg/mL (≈ 125 µM) | 27.2 µg/mL (≈ 74.7 µM)
6 |  | N#Cc1ccccc1-c1ccc(CNc2cccc(C(F)(F)F)c2)cc1 | 20.9 µM | 42.5 µg/mL (≈ 121 µM) | 25.8 µg/mL (≈ 73.3 µM)
7 |  | N#Cc1ccccc1-c1ccc(CNc2ccc(C(=O)O)cc2)cc1 | 51.2 µM | 32.6 µg/mL (≈ 99.2 µM) | 26.8 µg/mL (≈ 81.5 µM)
8 |  | N#Cc1ccccc1-c1ccc(CNc2ccc(C(F)(F)F)cc2)cc1 | 33.5 µM | 35.5 µg/mL (≈ 101 µM) | 34.4 µg/mL (≈ 97.7 µM)
9 |  | N#Cc1ccccc1-c1ccc(CNc2ccccc2[N+](=O)[O-])cc1 | 15.7 µM | 28.5 µg/mL (≈ 86.5 µM) | 23.8 µg/mL (≈ 72.1 µM)
10 |  | N#Cc1ccccc1-c1ccc(CNc2ccc(N3CCOCC3)c(F)c2)cc1 | 42.5 µM | 37.3 µg/mL (≈ 96.3 µM) | 21.6 µg/mL (≈ 55.7 µM)
11 |  | N#Cc1ccccc1-c1ccc(CNc2ccc(O)cc2)cc1 | 34.6 µM | 33.6 µg/mL (≈ 112 µM) | 28.3 µg/mL (≈ 94.3 µM)
12 |  | N#Cc1ccccc1-c1ccc(CNn2cnnc2)cc1 | 50.7 µM | 36.5 µg/mL (≈ 133 µM) | 23.8 µg/mL (≈ 86.3 µM)
13 |  | O=C(O)c1cn(C2CC2)c2cc(N3CCNCC3)c(F)cc2c1=O [CIPROFLOXACIN] |  | 25 µg/mL (≈ 75.4 µM) | 
14 |  | COc1ccc2nc(NCc3ccc(-c4ccccc4C#N)cc3)sc2c1 | 27.8 µM | 35.2 µg/mL (≈ 94.9 µM) | 36.2 µg/mL (≈ 97.6 µM)
15 |  | N#Cc1ccccc1-c1ccc(CNc2cccc([N+](=O)[O-])c2)cc1 | 25 µM | 40.9 µg/mL (≈ 124 µM) | 29.3 µg/mL (≈ 89.1 µM)
16 | 22.8 µM | CCCC1=NC2C(C)=CC(C)=NN2C1Cc1ccc(-c2ccccc2C(=O)O)cc1 (configuration not stated) |  |  | 
